Earlier results as cited in patent US6620433B2, “Dispersible and soluble galenic paracetamol formulation, method for its preparation and its applications” (Laboratorios Belmac, S.A., priority 2000, dated 2003).

Key:
mice = conditions: interperitoneal administration

CC(=O)Nc1ccc(O)cc1 [Paracetamol, N-(4-hydroxyphenyl) acetamide]
solubility in cold water (cold water): barely soluble | solubility in ether (ether): barely soluble | solubility in methanol, ethanol, dimethylformamide, ethylene dichloride, acetone and ethyl acetate (organic solvents): soluble | solubility in petroleum ether, pentane and benzene (petroleum ether, pentane, benzene): practically insoluble | LD50 in mice (mice): 500 mg/kg
